Results as given in patent publication US20050004029A1, “Methods and compositions for treating vascular leak using hepatocyte growth factor” (priority 2001, published 2005).

Tests used:
Assay type in all cases: cell-based
Rac GTPase = Rac GTPase activity, p21 Rac-binding domain assay; conditions: HGF 10 ng/mL or Sph-1-P 1 μM for 1 or 5 min
Description: Endothelial cells grown in 100 mm dishes were incubated with agonists in serum-free M199. Cells were lysed in 500 μl Mg^2+ lysis buffer (Upstate Biotechnology, Lake Placid, N.Y.) and homogenized by pipetting. After a brief centrifugation to remove the cell debris, 300 μl of supernatant was incubated with the agarose-conjugated p21-binding domain (PBD) of human PAK-1 (10 μg, 30 min, Upstate Biotechnology). The agarose beads were washed with 1 ml of lysis buffer 5 times and re-suspended in 30 μl of 2×SDS buffer. After 10 min centrifugation at 14,000 g, 15 μl of supernatant from each sample was subjected to electrophoresis in 15% PAGE. […] For total Rac protein measurement, 5 μl of the original cell lysates were used for electrophoresis and western analysis. […] Pulmonary artery endothelial cells were incubated with HGF (10 ng/mL) or Sph-1-P (1 μM) for 1 or 5 min. Cells were lysed, supernatants collected, and activated GTP-bound Rac was precipitated by agarose-conjugated human PAK-1 p21-binding domain and subsequently immunoblotted by anti-Rac mAb. Total Rac protein was detected using cell lysates.

[1] = tested on: human alveolar epithelial cells (A549); test: Electrical resistance of A549 alveolar epithelial cells on gold microelectrodes; conditions: HGF 100 ng/mL; sphingosine 1-phosphate 1 μM
Description: FIGS. 1A-1D depict HGF-mediated increases in human transendothelial electrical resistance (TER). FIG. 1A: Human pulmonary artery endothelial cells were grown to confluence on gelatinized gold microelectrodes. Two hours prior to TER measurement, growth medium was replaced with serum-free M199. Serial-diluted HGF was added to cells at indicated concentrations and TER monitored for 2.5 hr. […] The result shown is a representative TER tracing of three independent experiments. FIG. 1B: Similar to FIG. 1A, human alveolar epithelial cells (A549) were grown on gold microelectrodes and challenged with vehicle, HGF, (100 ng/mL) or sphingosine 1-phosphate (1 μM). […]
Electrical resistance of EC monolayers was measured using electrical cell impedance sensor system (Applied Biophysics Inc., Troy, N.Y.) as described in Garcia, J. G. N. et al. (2000) J. Appl. […] Cells grown on gold microelectrodes (10^−3 cm^2) in polycarbonate wells act as insulating particles, and the resistance across the monolayers (transendothelial electrical resistance, or TER) is measured in real time. […] The in-phase and out-of-phase voltages between the electrodes were monitored in real time with the lock-in amplifier and converted to scalar measurements of transendothelial impedance, of which resistance was the primary focus. […]

[2] = tested on: Bovine Pulmonary Artery Endothelium; test: Transendothelial electrical resistance (TER) across bovine pulmonary artery endothelium; conditions: VEGF 100 ng/ml, Sph 1-P 1 μM, HGF 20 ng/ml
Description: Bovine pulmonary artery endothelial cells were purchased from the American Type Culture Collection (ATCC®, Rockville, Md.) and utilized at passage 19-24. Cells were maintained in Medium 199 (Life Technologies, Rockville, Md.) supplemented with 20% (v/v) colostrum-free bovine serum (CFBS) (Irvine Scientific, Santa Ana, Calif.), 15 μg/ml endothelial cell growth supplement (Upstate Biotechnology, Lake Placid, N.Y.), 1% antibiotic and antimycotic, and 0.1 mM non-essential amino acids (Life Technologies). Human pulmonary artery endothelial cells were purchased from Clonetics (Walkersville, Md.), cultured in EBM-2 complete medium (Clonetics) and utilized at passage 5-10. Human alveolar epithelial cells (A549) were purchased from ATCC® and cultured in the same medium as the bovine endothelial cells, except that the endothelial cell growth supplement was omitted. All cells were maintained at 37° C. in a humidified atmosphere of 5% CO2 and 95% air.
Electrical resistance of EC monolayers was measured using electrical cell impedance sensor system (Applied Biophysics Inc., Troy, N.Y.) as described in Garcia, J. G. N. et al. (2000) J. Appl. Physiol. 89:2333-2343. Cells grown on gold microelectrodes (10^−3 cm^2) in polycarbonate wells act as insulating particles, and the resistance across the monolayers (transendothelial electrical resistance, or TER) is measured in real time. As cells adhere on the microelectrode and intercellular cell contacts are formed or in response to agents which increase junctional integrity, the TER increases (Garcia, J. G. N. et al. (2001) J. Clin. Invest. 108:689-711). In contrast, cell retraction, rounding, or loss of adhesion is reflected by decreases in TER (Garcia, J. G. N. et al. (2000) J. Appl. Physiol. 89:2333-2343). These measurements provide a highly sensitive biophysical assay that indicates the state of cell shape, focal adhesion, and endothelial barrier function (Giaever, I. and Keese, C. R. (1993) Nature 366:591-592; Tiruppathi, C. et al. (1992) Proc. Natl. Acad. Sci. USA 89:7919-7923). All electrical resistance data are presented as normalized values. Briefly, current was applied across the electrodes by a 4000 Hz AC voltage source with an amplitude of 1 V in series with a 1 MΩ resistance to approximate a constant current source (−1 μA). The small gold electrode and the larger counter electrode (1 cm^2) were connected to a phase-sensitive lock-in amplifier (5301A; EG&G Instruments Corp, Princeton, N.J.) with a built in differential preamplifier (5316A; EG&G Instruments Corp.). The in-phase and out-of-phase voltages between the electrodes were monitored in real time with the lock-in amplifier and converted to scalar measurements of transendothelial impedance, of which resistance was the primary focus. […] For some experiments, total TER was vectorially resolved into components reflecting resistance to current flow beneath the cell layer (α) and resistance to current flow between adjacent cells (Rb) as described in Garcia et al. (2000) supra utilizing the method of Giaiver and Keese which models the endothelial monolayer mathematically (Giaever, I. and Keese, C. R. (1993) Nature 366:591-592). Thus, changes in α reflect alterations in the net state of cell-matrix adhesion, whereas changes in Rb reflect alterations in the integrity of cell-cell adhesion. TER values from each microelectrode were pooled at discrete time points and plotted versus time as the mean±standard error of the mean (Garcia et al. (2000) supra).

[3] = vs vehicle control, ±SEM, thrombin 100 μM

## CCCCCCCCCCCCC/C=C/[C@@H](O)[C@@H](N)COP(=O)(O)O [Sph 1-P, sphingosine 1-phosphate, reference compound]
Rac GTPase
  Rac activity: rapidly and transiently increases Rac activity
[1]
  effect on electrical resistance of epithelial cells: did enhance epithelial cell integrity
[2]; thrombin, 10-60 min
  TER response in words: brisk and sustained increase in TER
[2]; [3]
  changes in TER 30 min: +50 ± 6%
  changes in TER 60 min: +35 ± 4%
[2]; vs vehicle control, ±SEM, thrombin 100 μM, (+) increased, (−) decreased
  changes in TER 10 min: +50 ± 5%
